The values below come from paper PMC3635066 (Journal of medicinal chemistry, 2012).

By IC50 is commonly meant the point on the concentration scale where inhibition reaches its midpoint.

The target in data set [1] is T1, recombinant CpIMPDH (Cryptosporidium parvum, UniProt Q8T6T2).
T1 sequence (Q8T6T2 1-400): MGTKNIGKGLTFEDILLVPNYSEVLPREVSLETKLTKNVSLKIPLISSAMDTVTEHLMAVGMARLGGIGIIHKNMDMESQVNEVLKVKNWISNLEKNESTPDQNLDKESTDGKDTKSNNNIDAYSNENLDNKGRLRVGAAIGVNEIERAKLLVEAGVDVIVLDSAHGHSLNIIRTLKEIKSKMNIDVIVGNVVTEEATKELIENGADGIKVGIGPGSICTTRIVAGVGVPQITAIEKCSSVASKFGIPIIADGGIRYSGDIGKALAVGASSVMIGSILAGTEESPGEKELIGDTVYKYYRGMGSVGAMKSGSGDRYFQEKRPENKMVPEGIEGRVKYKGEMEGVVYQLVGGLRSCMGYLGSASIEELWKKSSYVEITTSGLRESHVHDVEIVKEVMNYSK
Briefly: biochemical. The data set is classed as biochemical. The note with it: for increase in potency: relative to compound 1.

Data set [2] in a line: Mouse liver microsomal stability. The data set is classed as in vitro ADME. On the technique in general: Microsomes from liver hold many membrane-bound enzymes, among them those of drug oxidation.

On to `CC(C)c1cccc(C(C)(C)NC(=O)Nc2ccc3ccccc3c2)c1` [Compound 11, 1-(2-(3-Isopropylphenyl)propan-2-yl)-3-(naphthalen-2-yl)urea], for which the “CpIMPDH inhibitory activity (in words)” value in data set [1] is listed as “complete loss of inhibitory activity”.

For `CC(C)(NC(=O)Nc1ccc(Cl)cc1)c1ccc(-c2ccccc2)cc1` [Compound 36b, 1-(2-([1,1′-Biphenyl]-4-yl)propan-2-yl)-3-(4-chlorophenyl)urea], in data set [1], the “CpIMPDH inhibitory activity (in words)” value is “complete loss of inhibitory activity”.

For the compound `C=C(C)c1cccc(C(C)(C)NC(=O)Nc2ccc(Br)cc2)c1` [Compound 5c, 1-(4-Bromophenyl)-3-(2-(3-(prop-1-en-2-yl)phenyl)propan-2-yl)urea], the increase in potency in data set [1] is reported as 32 fold.

On to `C=C(C)c1cccc(C(C)(C)NC(=O)Nc2cccc(Cl)c2)c1` [Compound 5d, 1-(3-Chlorophenyl)-3-(2-(3-(prop-1-en-2-yl)phenyl)propan-2-yl)urea], for which, in data set [1] (relative to 5b), the loss of activity turned out to be 3 fold.

Regarding `C=C(C)c1cccc(C(C)(C)NC(=O)Nc2ccc(Cl)cc2)c1` [Compound 5b, 1-(4-chlorophenyl)-3-(2-(3-(prop-1-en-2-yl)phenyl)propan-2-yl)urea], in data set [1], the increase in potency was found to be 16 fold.

Take `C/C(=N\OCCN)c1cccc(C(C)(C)NC(=O)Nc2ccc(Cl)c([N+](=O)[O-])c2)c1` [Compound 9, (E)-1-(2-(3-(1-((2-aminoethoxy)imino)ethyl)phenyl)propan-2-yl)-3 (4-chloro-3-nitrophenyl)urea]: in data set [2], the “mouse liver microsomal stability (in words)” value is listed as “excellent mouse liver microsomal stability”.

Regarding `C/C(=N\O)c1cccc(C(C)(C)NC(=O)Nc2ccc(Cl)c(C(N)=O)c2)c1` [Compound 7c, (E) 2 chloro 5-(3-(2-(3-(1-(hydroxyimino)ethyl)phenyl)propan-2-yl)ureido)benzamide], in data set [1], the half-inhibitory concentration (IC50) was no more than 1 nM.

Regarding `CC(C)(NC(=O)Nc1ccc2[nH]c(=O)[nH]c2c1)c1ccccc1` [Compound 38, 1-(2-Oxo-2,3-dihydro-1H-benzo[d]imidazol-5-yl)-3-(2-phenylpropan 2 yl)urea], the “CpIMPDH inhibitory activity (in words)” value in data set [1] is listed as “complete loss of inhibitory activity”.

Consider `CO/N=C(\C)c1cccc(C(C)(C)NC(=O)Nc2ccc(Cl)c(C(F)(F)F)c2)c1` [Compound 8a, (E)-1-(4-Chloro-3-(trifluoromethyl)phenyl)-3-(2-(3-(1-(methoxyimino)ethyl)phenyl)propan-2-yl)urea], for which the “mouse liver microsomal stability (in words)” value in data set [2] is given as “less stable”.

In the case of `CC(=O)c1cccc(C(C)(C)OC(=O)Nc2ccc(Cl)cc2)c1` [Compound 28, 2-(3-Acetylphenyl) propan-2-yl (4-chlorophenyl)carbamate], the reduction in activity in data set [1] (relative to 6a) is given as 2 fold.

Regarding `CC(C)(NC(=O)Nc1ccc(Cl)c(C(N)=O)c1)c1cccc(-c2ccccc2)c1` [Compound 36a, 5-(3-(2-([1, 1′-biphenyl]-3-yl)propan-2-yl)ureido)-2-chlorobenzamide], the “CpIMPDH inhibitory activity (in words)” value in data set [1] was “retained potent activity”.

In the case of `CC(=O)c1cccc(C(C)(C)NC(=O)Nc2ccc(Cl)c(C(N)=O)c2)c1` [Compound 6c, 5-(3-(2-(3-acetylphenyl)propan-2-yl)ureido)-2-chlorobenzamide], the “mouse liver microsomal stability (in words)” value in data set [2] was “very resistant to oxidative degradation in microsomes”.

Take `C=C(C)c1cccc(C(C)(C)NC(=O)Nc2ccc(C(C)(C)C)cc2)c1` [Compound 5g, 1-(4-(tert-Butyl)phenyl)-3-(2-(3-(prop-1-en-2-yl)phenyl)propan-2-yl)urea]: in data set [1], the “CpIMPDH inhibitory activity (in words)” value is given as “lacking activity”.

Take `CC(=O)c1cccc(CNC(=O)Nc2ccc(Cl)cc2)c1` [Compound 23, 1-(3-Acetylbenzyl)-3-(4-chlorophenyl) urea]: in data set [1], the “CpIMPDH inhibitory activity (in words)” value is recorded as “complete loss of activity”.

In the case of `CC(O)c1cccc(C(C)(C)NC(=O)Nc2ccc(Cl)cc2)c1` (stereo not shown) [Compound 10, 1-(4-chlorophenyl)-3-(2-(3-(1-hydroxyethyl)phenyl)propan-2-yl)urea], the “CpIMPDH inhibitory activity (in words)” value in data set [1] was “moderate activity”.

Consider `C=C(C)c1cccc(C(C)(C)NC(=O)Nc2ccccc2Cl)c1` [Compound 5e, 1-(2-Chlorophenyl)-3-(2-(3-(prop-1-en-2-yl)phenyl)propan-2-yl)urea], for which the “CpIMPDH inhibitory activity (in words)” value in data set [1] was “completely inactive”.
